US20050222102A1, “Treatment of rhinitis with anticholinergics alone or in combination with antihistamines, phosphodiesterase 4 inhibitors, or corticosteroids” (Sofotec GmbH & Co. KG, priority 2004, published 2005)
Where a name gives a salt, the structure may show the parent alone.

Key:
[1] = water solubility; type: physicochemical
[2] = in vivo, po
[3] = system: animal models of asthma and rhinitis; test: animal models of asthma and rhinitis; details: in vivo
[4] = system: experimental allergic rhinitis models; test: experimental allergic rhinitis models; type: in vivo; details: for side-effects: compared with expectation; for reduction in the watery secretion: compared with what is typical for anticholinergic agents

water solubility [1]	SMILES	emesis and signs of nausea [2]	effectiveness in animal models of asthma and rhinitis [3]	side-effects [4]	reduction in the watery secretion [4]
sufficient	CN1CCCC(n2nc(Cc3ccc(Cl)cc3)c3ccccc3c2=O)CC1 (stereo not shown) [azelastine hydrochloride]				
	O=C(Nc1c(Cl)cncc1Cl)C(=O)c1cn(Cc2ccc(F)cc2)c2ccc(O)cc12 [AWD 12-281]	devoid of emesis and signs of nausea	highly effective		
	C[N+]1(C)CCC(OC(=O)C(O)(c2ccccc2)C2CCCC2)C1 (racemic) [glycopyrrolate]			lower side-effects than expected	longer-lasting reduction in the watery secretion
	C[N+]1(C)CC[C@@H](OC(=O)[C@](O)(c2ccccc2)C2CCCC2)C1.[Br-] (single isomer, unassigned) [R,R-isomer, R,R-glycopyrrolate]			lower side-effects than expected	longer-lasting reduction in the watery secretion
